Paper PMC7956643, “Synthesis of Novel Pyrido[1,2-c]pyrimidine Derivatives with 6-Fluoro-3-(4-piperidynyl)-1,2-benzisoxazole Moiety as Potential SSRI and 5-HT1A Receptor Ligands” (International Journal of Molecular Sciences, 2021)
Marks after values point to notes of the source that are not given here.

How the values were obtained:
[1] = molecular target: T1, human 5-HT1A receptor (Homo sapiens, UniProt P08908); assay: 5-HT1A radioligand binding assay; settings: [3H]-8-OH-DPAT 1 nM; membranes from CHO-K1 cells with human 5-HT1A receptor
T1 construct: purchased PerkinElmer; host or cells: CHO-K1 cells, stably transfected
T1 sequence (P08908 1-422): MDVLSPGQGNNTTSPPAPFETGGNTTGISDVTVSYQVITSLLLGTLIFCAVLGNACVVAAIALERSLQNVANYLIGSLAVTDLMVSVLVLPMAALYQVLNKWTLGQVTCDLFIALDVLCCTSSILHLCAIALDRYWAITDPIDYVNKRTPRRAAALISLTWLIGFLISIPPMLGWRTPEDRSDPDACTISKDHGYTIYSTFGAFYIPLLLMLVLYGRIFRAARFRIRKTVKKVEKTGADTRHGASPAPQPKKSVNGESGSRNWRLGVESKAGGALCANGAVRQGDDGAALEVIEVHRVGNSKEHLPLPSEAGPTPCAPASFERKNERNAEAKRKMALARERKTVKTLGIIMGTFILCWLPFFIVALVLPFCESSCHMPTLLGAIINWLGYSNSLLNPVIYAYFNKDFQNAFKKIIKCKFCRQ
Description: Radioligand binding was performed using membranes from CHO-K1 cells stably transfected with the human 5-HT1A receptor (PerkinElmer, Fremont, CA, USA). All assays were carried out in duplicate. Then, 50 µL working solution of the tested compounds, 50 µL [^3H]-8-OH-DPAT (final concentration 1 nM) and 150 µL diluted membranes (20 µg protein per well) prepared in assay buffer (50 mM Tris, pH 7.4, 10 mM MgSO4, 0.5 mM EDTA, 0.1% ascorbic acid) were transferred to a polypropylene 96-well microplate using 96-wells pipetting station Rainin Liquidator (MettlerToledo, Columbus, OH, USA). […] The reaction was terminated by rapid filtration through GF/B filter mate, presoaked with 0.5% polyethyleneimine for 30 min. Ten rapid washes with 200 µL 50 mM Tris buffer (4 °C, pH 7.4) were performed using an automated harvester system—Harvester-96 MACH III FM (Tomtec, Hamden, CT, USA). […] Data were fitted to a one-site curve-fitting equation with Prism 6 (GraphPad Software, San Diego, CA, USA) and Ki values were estimated from the Cheng–Prusoff equation.

[2] = molecular target: T2, SERT protein (Rattus norvegicus, UniProt P31652); assay: SERT radioligand binding assay; settings: [3H]-citalopram 1.0 nM; rat cortex tissue
T2 construct: from tissue; host or cells: rat cortex
T2 sequence (P31652 whole entry): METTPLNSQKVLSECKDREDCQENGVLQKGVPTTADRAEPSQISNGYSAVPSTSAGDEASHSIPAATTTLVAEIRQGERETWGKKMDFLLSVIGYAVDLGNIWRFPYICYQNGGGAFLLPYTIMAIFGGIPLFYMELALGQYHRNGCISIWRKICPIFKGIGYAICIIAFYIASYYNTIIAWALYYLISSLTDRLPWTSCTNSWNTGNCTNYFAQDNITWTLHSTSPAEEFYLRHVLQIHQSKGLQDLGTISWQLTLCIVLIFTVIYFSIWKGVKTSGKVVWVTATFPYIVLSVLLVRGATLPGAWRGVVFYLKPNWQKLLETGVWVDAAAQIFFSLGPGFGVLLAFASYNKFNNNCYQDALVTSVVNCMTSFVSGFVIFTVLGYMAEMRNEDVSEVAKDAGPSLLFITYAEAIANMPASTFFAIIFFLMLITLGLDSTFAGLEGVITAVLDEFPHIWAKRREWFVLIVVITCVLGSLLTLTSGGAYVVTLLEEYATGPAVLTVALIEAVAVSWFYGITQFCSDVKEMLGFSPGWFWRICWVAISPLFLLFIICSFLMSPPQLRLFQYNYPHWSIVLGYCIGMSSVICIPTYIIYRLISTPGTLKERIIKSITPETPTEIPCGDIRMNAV
Description: Radioligand binding was performed using rat cortex tissue. All assays were carried out in duplicate. First, 50 µL working solution of the tested compounds, 50 µL [^3H]-citalopram (final concentration 1.0 nM) and 150 µL tissue suspension, prepared in assay buffer (50 mM Tris. pH 7.7; 150 mM NaCl; 5 mM KCl), were transferred to a polypropylene 96-well microplate using 96-wells pipetting station Rainin Liquidator (MettlerToledo). […] The reaction was terminated by rapid filtration through GF/B filter mate presoaked with 0.3% polyethyleneimine for 30 min. Ten rapid washes with 200 µL 50 mM Tris buffer (4 °C, pH 7.7) were performed using an automated harvester system—Harvester-96 MACH III FM (Tomtec). […] Data were fitted to a one-site curve-fitting equation with Prism 6 (GraphPad Software) and Ki values were estimated from the Cheng–Prusoff equation.

[3] = molecular target: T3, 5-HT1A receptor (Mus musculus, UniProt Q64264); assay: Body temperature in mice (induced hypothermia); type: in vivo, CD-1 mice; settings: mice, 5 mg/kg sc
T3 construct: from tissue; host or cells: whole animal, male CD-1 mice
T3 sequence (Q64264 1-421): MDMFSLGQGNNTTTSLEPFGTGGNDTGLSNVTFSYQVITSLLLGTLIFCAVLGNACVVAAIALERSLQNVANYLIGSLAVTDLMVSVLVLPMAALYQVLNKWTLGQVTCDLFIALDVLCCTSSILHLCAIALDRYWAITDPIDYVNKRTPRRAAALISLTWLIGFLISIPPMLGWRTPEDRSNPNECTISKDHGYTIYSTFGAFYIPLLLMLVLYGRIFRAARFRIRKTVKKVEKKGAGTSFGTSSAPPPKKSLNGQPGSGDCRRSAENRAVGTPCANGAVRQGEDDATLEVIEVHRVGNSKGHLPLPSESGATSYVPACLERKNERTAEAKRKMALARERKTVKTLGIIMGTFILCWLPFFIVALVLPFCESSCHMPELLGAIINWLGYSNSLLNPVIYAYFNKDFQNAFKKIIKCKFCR
Description: The experiments were performed on male CD-1 mice (23–40 g). The animals were kept at room temperature (21 ± 2 °C) on a natural day-night cycle (March–October) and housed under standard laboratory conditions. They had free access to food and tap water before the experiment. Each experimental group consisted of 6–8 animals/dose. All the animals were used only once. 8-Hydroxy-2-(di-n-propylamino)tetralin hydro-bromide (8-OH-DPAT, Research Biochemical Inc.) was used as aqueous solution. […] Vehicle group was administered as 10% aqueous solution of dimethyl sulphoxide (DMSO). 8-OH-DPAT was injected subcutaneously (sc); 6a and 7g were given intraperitoneally (ip) in a volume of 10 mL/kg/mice. The obtained data were analyzed by Dunnett’s test (one drug administration) or by the Newman–Keuls test (two drugs administrations). Forced swim test: the obtained data was evaluated by one-way analysis of variance (ANOVA) followed by the Dunnett’s multiple comparisons test: p < 0.05 was considered significant.
The results were expressed as a change in body temperature (Δt) with respect to the basal body temperature, as measured at the beginning of the experiment.

Row | SMILES | Ki [1] [µM] | Ki [2] [µM] | melting point [°C] | Δt ± SEM, body temperature ([3]; 30 min) | Δt ± SEM, body temperature ([3]; 60 min) | Δt ± SEM, body temperature ([3]; 90 min) [°C] | Δt ± SEM, body temperature ([3]; 120 min) [°C]
1 | Cc1ccccc1-c1c(=O)n(CCCCN2CCC(c3noc4cc(F)ccc34)CC2)c(=O)n2ccccc12 [Compound 6b, 4-(2-Methylphenyl)-2-{4-[4-(6-fluoro-1,2-benzoxazol)-1-piperidyl]butyl}-pyrido[1,2-c]pyrimidine-1,3-dione] | 0.03 ± 0.0035 | > 5 | 120 to 122 |  |  |  | 
2 | COc1ccccc1-c1c(=O)n(CCCCN2CCC(c3noc4cc(F)ccc34)CC2)c(=O)n2ccccc12 [Compound 6c, 4-(2-Methoxphenyl)-2-{4-[4-(6-fluoro-1,2-benzoxazol)-1-piperidyl]butyl}-pyrido[1,2-c]pyrimidine-1,3-dione] | 0.007 ± 0.001 | > 5 | 65 to 70 |  |  |  | 
3 | O=c1c(-c2ccccc2F)c2ccccn2c(=O)n1CCCCN1CCC(c2noc3cc(F)ccc23)CC1 [Compound 6e, 4-(2-Fluorophenyl)-2-{4-[4-(6-fluoro-1,2-benzoxazol)-1-piperidyl]butyl}-pyrido[1,2-c]pyrimidine-1,3-dione] | 0.015 ± 0.0006 | > 1 | 58 to 62 |  |  |  | 
4 | Cc1ccc(-c2c(=O)n(CCCCN3CCC(c4noc5cc(F)ccc45)CC3)c(=O)n3ccccc23)cc1 [Compound 6f, 4-(4-Methylphenyl)-2-{4-[4-(6-fluoro-1,2-benzoxazol)-1-piperidyl]butyl}-pyrido[1,2-c]pyrimidine-1,3-dione] | 0.074 ± 0.004 | 0.772 ± 0.036 | 158 to 159 |  |  |  | 
5 | COc1ccc(-c2c(=O)n(CCCCN3CCC(c4noc5cc(F)ccc45)CC3)c(=O)n3ccccc23)cc1 [Compound 6g, 4-(4-Methoxyphenyl)-2-{4-[4-(6-fluoro-1,2-benzoxazol)-1-piperidyl]butyl}-pyrido[1,2-c]pyrimidine-1,3-dione] | 0.01 ± 0.0011 | 0.73 ± 0.079 | 163 to 166 |  |  |  | 
6 | O=c1c(-c2ccc(Cl)cc2)c2ccccn2c(=O)n1CCCCN1CCC(c2noc3cc(F)ccc23)CC1 [Compound 6h, 4-(4-Chlorophenyl)-2-{4-[4-(6-fluoro-1,2-benzoxazol)-1-piperidyl]butyl}-pyrido[1,2-c]pyrimidine-1,3-dione] | 0.021 ± 0.0015 | 0.31 ± 0.001 | 152 to 155 |  |  |  | 
7 | O=c1c(-c2ccc(F)cc2)c2ccccn2c(=O)n1CCCCN1CCC(c2noc3cc(F)ccc23)CC1 [Compound 6i, 4-(4-Fluorophenyl)-2-{4-[4-(6-fluoro-1,2-benzoxazol)-1-piperidyl]butyl}-pyrido[1,2-c]pyrimidine-1,3-dione] | 0.017 ± 0.002 | 0.342 ± 0.0288 | 102 to 107 |  |  |  | 
8 | O=c1c(-c2ccccc2)c2n(c(=O)n1CCCCN1CCC(c3noc4cc(F)ccc34)CC1)CCCC2 [Compound 7a, 4-Phenyl-2-{4-[4-(6-fluoro-1,2-benzoxazol-3-yl)-1-piperidyl]butyl}-5,6,7,8-tetrahydro-pyrido[1,2-c]pyrimidine-1,3-dione] | 0.027 ± 0.002 | 0.52 ± 0.0588 | 110 to 113 |  |  |  | 
9 | Cc1ccccc1-c1c2n(c(=O)n(CCCCN3CCC(c4noc5cc(F)ccc45)CC3)c1=O)CCCC2 [Compound 7b, 4-(2-Methylphenyl)-2-{4-[4-(6-fluoro-1,2-benzoxazol)-1-piperidyl]butyl}-5,6,7,8-tetrahydro-pyrido[1,2-c]pyrimidine-1,3-dione] | 0.035 ± 0.0035 | > 1 |  |  |  |  | 
10 | COc1ccccc1-c1c2n(c(=O)n(CCCCN3CCC(c4noc5cc(F)ccc45)CC3)c1=O)CCCC2 [Compound 7c, 4-(2-Methoxphenyl)-2-{4-[4-(6-fluoro-1,2-benzoxazol)-1-piperidyl]butyl}-5,6,7,8-tetrahydro-pyrido[1,2-c]pyrimidine-1,3-dione] | 0.062 ± 0.006 | 0.878 ± 0.088 |  |  |  |  | 
11 | O=c1c(-c2ccccc2Cl)c2n(c(=O)n1CCCCN1CCC(c3noc4cc(F)ccc34)CC1)CCCC2 [Compound 7d, 4-(2-Chlorophenyl)-2-{4-[4-(6-fluoro-1,2-benzoxazol)-1-piperidyl]butyl}-5,6,7,8-tetrahydro-pyrido[1,2-c]pyrimidine-1,3-dione] | 0.071 ± 0.0069 | 0.31 ± 0.0345 |  |  |  |  | 
12 | O=c1c(-c2ccccc2F)c2n(c(=O)n1CCCCN1CCC(c3noc4cc(F)ccc34)CC1)CCCC2 [Compound 7e, 4-(2-Fluorophenyl)-2-{4-[4-(6-fluoro-1,2-benzoxazol)-1-piperidyl]butyl}-5,6,7,8-tetrahydro-pyrido[1,2-c]pyrimidine-1,3-dione] | 0.036 ± 0.0041 | > 1 |  |  |  |  | 
13 | Cc1ccc(-c2c3n(c(=O)n(CCCCN4CCC(c5noc6cc(F)ccc56)CC4)c2=O)CCCC3)cc1 [Compound 7f, 4-(4-Methylphenyl)-2-{4-[4-(6-fluoro-1,2-benzoxazol)-1-piperidyl]butyl}-5,6,7,8-tetrahydro-pyrido[1,2-c]pyrimidine-1,3-dione] | 0.052 ± 0.0025 | 1.77 ± 0.18 | 107 to 110 |  |  |  | 
14 | O=c1c(-c2ccc(Cl)cc2)c2n(c(=O)n1CCCCN1CCC(c3noc4cc(F)ccc34)CC1)CCCC2 [Compound 7h, 4-(4-Chlorophenyl)-2-{4-[4-(6-fluoro-1,2-benzoxazol)-1-piperidyl]butyl}-5,6,7,8-tetrahydro-pyrido[1,2-c]pyrimidine-1,3-dione] | 0.025 ± 0.003 | 0.29 ± 0.0227 | 116 to 120 |  |  |  | 
15 | CCCN(CCC)C1CCc2cccc(O)c2C1 (stereo not drawn) [Compound 8-OH-DPAT, 8-Hydroxy-2-(di-n-propylamino)tetralin hydro-bromide, reference compound] |  |  |  | −1.7 ± 0.2 ^b °C | −1.1 ± 0.2 ^b °C | −0.1 ± 0.1 | 0.3 ± 0.3
